Test results published in ChEMBL document CHEMBL2331453, “Arundinols A-C and arundinones A and B from the plant endophytic fungus Microsphaeropsis arundinis” (J Nat Prod, 2013).
Values after ≈ are worked out from the molar mass of the structure shown.

What was measured:
Staphylococcus aureus = assay: Antibacterial activity against Staphylococcus aureus ATCC 6538 after 24 hrs; assay type: functional; details: ATCC 6538, 24 h
A549 = assay: Cytotoxicity against human A549 cells after 48 hrs by MTS assay; assay type: functional, cell-based; details: A549, 48 h
T-24 = assay: Cytotoxicity against human T24 cells after 48 hrs by MTS assay; assay type: functional, cell-based; details: T-24, 48 h

**Q.** For `CC1(C)S[C@@H]2[C@H](NC(=O)[C@H](N)c3ccccc3)C(=O)N2[C@H]1C(=O)O` [AMPICILLIN], which MIC (Staphylococcus aureus) is on record?
**A.** The MIC was 0.46 µg/mL (≈ 1.32 µM).

**Q.** Which results are given for `COc1c(O)c(-c2c(O)c(OC)c(OC)c3c2OC(C)(O)C3=O)c2c(c1OC)C(=O)C(C)(O)O2` (centres undefined) [ARUNDINONE B]?
**A.** IC50 (A549): 81.6 µM; IC50 (T-24): 35.4 µM

**Q.** How did the MIC (Staphylococcus aureus) turn out when `C=C(C)[C@@H]1CC[C@]2(C)C(=C(C)C(=O)C[C@H]2O)C1` [LIGUCYPERONOL] was run?
**A.** The MIC was 11.4 µg/mL (≈ 48.6 µM).
